# Laboratory results from patent publication US6488924B1, “Vitamin K adduct, particularly suitable as vitamin supplement for feeds” (Luigi Stoppani S.p.A., priority 1999, dated 2002).
# Experiments:
# [1] = Stability in extruded feed (fish farm feed); type: physicochemical; settings: for menadione in feed, sampling point End point: after extrusion, drying and addition of fat; for menadione in feed, sampling point Mixer: after mixing, before extrusion
# Experimental: Two preparations of vitamin supplement of approximately 2500 kg of feed were prepared for each vitamin K source. The vitamin K supplements were mixed in with the feed in an industrial mixer, extruded in a continuous extruder with the addition of live steam, dried and added with fat.
# [2] = Characteristic parameters and comparative tests adduct vs MSB: solubility; type: physicochemical; settings: at 25° C.
# [3] = Thermal stability in air-circulation stove; type: physicochemical; settings: absence of humidity
# [4] = Thermal stability in controlled humidity (dispersed in aluminum silicate); type: physicochemical
# Experimental: A method described in the literature is used to compare the stability of Kavist with respect to MSB. According to this method, the products, as accurately dispersed in aluminum silicate (K.F. humidity around 11%) at the level of 1.5% by weight, are kept at 55° C. for 3 days in order to evaluate their menadione content before and after the treatment. The menadione titers of the adduct according to the invention and the percentage of menadione left unchanged before and after the treatment are listed hereafter.
# [5] = Stability under pressure (press on disk of finely ground powder); type: physicochemical; settings: 30 minutes
# [6] = Solubility in water (saturated solution in demineralized water); type: physicochemical; settings: ambient temperature, saturated solution in presence of a precipitate
# [7] = Release of menadione in aqueous medium; type: physicochemical; settings: demineralized water, municipal drinking water, seawater
# Experimental: The menadione release capacity of the adduct according to the invention and of MSB in three different types of water (demineralized water, municipal drinking water, and seawater) is evaluated.
# The following table lists the milligrams/liter of menadione found in the solution with respect to the total menadione of the polymeric adduct added as a suspension equal to 1 g/l ([…] menadione on 1 g of dry adduct): […]
# [8] = pH of the medium; cited from earlier work
"menadione in feed, sampling point End point ([1]; 1st preparation) [mg/kg]","menadione in feed, sampling point Mixer ([1]; 1st preparation) [mg/kg]","menadione in feed, sampling point End point ([1]; 2nd preparation) [mg/kg]","menadione in feed, sampling point Mixer ([1]; 2nd preparation) [mg/kg]",water solubility [2] [g/100 ml at 25 °C],Men found/initial Men ([3]; 120° for 24 hours) [%],Color ([3]; after 120° for 24 hours),Final menadione/initial menadione ([4]; 55° C. for 3 days in aluminum silicate (humidity around 11%)) [%],Final menadione content ([4]; after 55° C. for 3 days in aluminum silicate (humidity around 11%)) [%],"Initial menadione content ([4]; before treatment, dispersed in aluminum silicate (humidity around 11%) at 1.5% by weight) [%]","percentage of menadione left unchanged ([5]; 1 atm, 25° C.) [%]","percentage of menadione left unchanged ([5]; 1 atm, 120° C.) [%]","percentage of menadione left unchanged ([5]; 25 atm, 25° C.) [%]","percentage of menadione left unchanged ([5]; 25 atm, 120° C.) [%]","percentage of menadione left unchanged ([5]; 5000 atm, 25° C.) [%]","percentage of menadione left unchanged ([5]; 5000 atm, 120° C.) [%]",Menadione concentration mg/l saturated solution [6],menadione release in water (in words) [7],SMILES,pH at which isomerization into poorly effective product becomes complete [8]
22.7,86.1,18.1,86.3,–,–,–,–,–,–,–,–,–,–,–,–,–,–,"CC1(S(=O)(=O)O)CC(=O)c2ccccc2C1=O.NC(=O)c1cccnc1 (centres unmarked) [MNB, menadione nicotinamide bisulfite]",–
21.0,90.9,16.1,87.6,50,0,Purple,15.5,0.24,1.52,100,20,100,15,80,10,Higher than 20 × 10^4 mg mg/l,substantially instantaneous release,"CC1(S(=O)(=O)[O-])CC(=O)c2ccccc2C1=O.[Na+] (centres unmarked) [MSB, menadione sodium bisulfite]",approximately 8.5
